Assay results as given in patent publication US6551390B1, “Composition containing two different disazodyestuffs useful for ink jet recording” (Avecia Limited, priority 1998, dated 2003).

Assay: Aqueous solubility of dyes and dye composition
Format: physicochemical
Conditions: aqueous solubility at 20° C. and pH 9.5
Experimental: The aqueous solubility of Composition (1), Dye (A) and Dye (B) at 20° C. and pH 9.5 is: […]

COc1cc(N=Nc2cccc(S(=O)(=O)O)c2)ccc1NC(=O)Nc1ccc(N=Nc2cccc(S(=O)(=O)O)c2)cc1OC [Dye (A), CI Direct Yellow 132]
Solubility (%): 10.7%
